This note sets out measurements from US12479817B2, “Substituted 3-(1-oxoisoindolin-2-yl)piperidine-2,6-dione derivatives and uses thereof” (Novartis AG, priority 2019, dated 2025).

In experiment [1] the target is T1, IKZF1 (Homo sapiens, UniProt Q13422+Q96SW2).
T1 construct: expressed in transfected cells
Briefly: Prolabel quantification of IKZF1 protein levels in 293GT cells. Conditions: Pro-label assay in 293GT cells; for AC50: read-out: IKZF1 Degradation AC50; for IKZF1 Degradation (%): % degradation is at 10 μM. In kind it is cell-based. As for the experimental part: (§1) The Prolabel system from DiscoverX was used to develop high-throughput and quantitative assays to measure changes in IKZF1, IKZF2 and GSPT1 protein levels in response to compounds. The prolabel tag was derived from the alpha fragment of beta galactosidase and has the following protein sequence: mssnslavvlqadwenpgvtqlnrlaahppfaswrnseeartdrpsqqlislnge. The complementary fragment of beta-galactosidase (from DiscoverX), is added to the prolabel tag to form an active beta galactosidase enzyme whose activity can be precisely measured. In this way, the levels of a fusion protein with the prolabel tag can be quantified in cell lysates.
(§2) Lentiviral vectors, based on the Invitrogen pLenti6.2/V5 DEST backbone, were constructed that placed the prolabel tag upstream of IKZF1, IKZF2 or GSPT1 and expressed the fusion protein from a CMV promoter.
(§3) To ensure moderate and consistent expression of the prolabel fusion proteins across all cells in the population, stable cell lines were constructed from cells expressing a single copy of the construct. Lentivirus packaged with the constructs was made using the Virapower kit from Invitrogen.
(§4) The levels of prolabel tagged fusion proteins in compound treated cell lines were measured as follows:
(§5) Day 1, Cells were diluted to 1.0×10^6 cells/ml in normal growth medium. 17.5 μL, of cells were plated in each well of a solid white 384 well plate. Plates were incubated overnight in a 37° C. tissue culture incubator.
(§6) Day 2, Serial dilutions of compounds were made in 384 well plates from 10 mM stocks. 15 μL, of DMSO was added to each well of a 384 well plate. In the first column, 15 μL of stock compound was added. The solution was mixed and 15 μL was transferred to the next column. This was repeated until 20 two-fold dilutions were prepared. 2.5 μL, of diluted compounds were transferred into 60 μL of cell culture medium in another 384 well plate, and mixed well. 2.5 μL of this mixture was added to the plated cells. The final DMSO concentration was 0.5% and the highest concentration of compound was 50 μM. Plates were incubated overnight (e.g., about 14 h, 18 h, or 24 h) in a 37° C. tissue culture incubator.
(§7) Day 3, Plates were removed from the incubator and allowed to equilibrate at rt for 30 minutes. Prolabel substrate (DiscoverX PathHunter Prolabel Detection Kit, User manual: 93-0180) was added as described by the manufacturers protocols. Plates were incubated at rt for three hours and luminescence was read using an Envision reader (Perkin Elmer) Data was analyzed and visualized using the Spotfire software package.

Experiment [2] concerns the target T2, IKZF2 (Homo sapiens, UniProt Q96SW2+Q9UKS7).
T2 construct: expressed in transfected cells
Put plainly: Prolabel quantification of IKZF2 protein levels in 293GT cells. In kind it is cell-based. Conditions: Pro-label assay in 293GT cells; for IKZF2 Degradation (%): % degradation is at 10 μM; for AC50: read-out: IKZF2 Degradation AC50. As for the experimental part:
as §1, §2, §3, §4, §5, §6, §7

T1 sequence (Q13422 whole entry): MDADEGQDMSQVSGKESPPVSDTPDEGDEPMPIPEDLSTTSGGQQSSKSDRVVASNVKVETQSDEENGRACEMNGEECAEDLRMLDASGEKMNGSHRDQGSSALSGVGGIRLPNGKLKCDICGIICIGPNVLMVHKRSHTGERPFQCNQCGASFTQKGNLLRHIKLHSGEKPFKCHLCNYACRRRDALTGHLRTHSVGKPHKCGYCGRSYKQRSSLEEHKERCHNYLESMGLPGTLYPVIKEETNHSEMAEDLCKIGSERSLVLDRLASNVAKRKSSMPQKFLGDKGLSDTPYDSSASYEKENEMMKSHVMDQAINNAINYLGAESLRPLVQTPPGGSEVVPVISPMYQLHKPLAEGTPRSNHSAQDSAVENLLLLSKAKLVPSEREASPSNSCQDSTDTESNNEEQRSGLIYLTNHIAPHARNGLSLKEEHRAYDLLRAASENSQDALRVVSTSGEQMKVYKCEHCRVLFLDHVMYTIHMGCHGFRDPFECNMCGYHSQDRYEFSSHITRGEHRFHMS
T1 sequence (Q96SW2 whole entry): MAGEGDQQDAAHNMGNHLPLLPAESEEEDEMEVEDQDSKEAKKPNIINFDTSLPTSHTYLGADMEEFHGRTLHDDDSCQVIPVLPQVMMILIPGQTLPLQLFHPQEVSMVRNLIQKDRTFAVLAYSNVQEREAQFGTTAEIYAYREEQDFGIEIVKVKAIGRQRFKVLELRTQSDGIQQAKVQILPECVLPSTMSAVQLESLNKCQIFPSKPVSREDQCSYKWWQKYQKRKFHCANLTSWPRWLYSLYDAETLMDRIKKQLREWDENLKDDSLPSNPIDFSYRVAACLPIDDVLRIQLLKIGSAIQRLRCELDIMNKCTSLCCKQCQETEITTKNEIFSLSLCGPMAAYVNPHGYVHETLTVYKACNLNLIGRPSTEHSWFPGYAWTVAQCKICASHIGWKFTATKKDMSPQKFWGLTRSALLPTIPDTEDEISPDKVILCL
T1 sequence (Q16531 whole entry partner): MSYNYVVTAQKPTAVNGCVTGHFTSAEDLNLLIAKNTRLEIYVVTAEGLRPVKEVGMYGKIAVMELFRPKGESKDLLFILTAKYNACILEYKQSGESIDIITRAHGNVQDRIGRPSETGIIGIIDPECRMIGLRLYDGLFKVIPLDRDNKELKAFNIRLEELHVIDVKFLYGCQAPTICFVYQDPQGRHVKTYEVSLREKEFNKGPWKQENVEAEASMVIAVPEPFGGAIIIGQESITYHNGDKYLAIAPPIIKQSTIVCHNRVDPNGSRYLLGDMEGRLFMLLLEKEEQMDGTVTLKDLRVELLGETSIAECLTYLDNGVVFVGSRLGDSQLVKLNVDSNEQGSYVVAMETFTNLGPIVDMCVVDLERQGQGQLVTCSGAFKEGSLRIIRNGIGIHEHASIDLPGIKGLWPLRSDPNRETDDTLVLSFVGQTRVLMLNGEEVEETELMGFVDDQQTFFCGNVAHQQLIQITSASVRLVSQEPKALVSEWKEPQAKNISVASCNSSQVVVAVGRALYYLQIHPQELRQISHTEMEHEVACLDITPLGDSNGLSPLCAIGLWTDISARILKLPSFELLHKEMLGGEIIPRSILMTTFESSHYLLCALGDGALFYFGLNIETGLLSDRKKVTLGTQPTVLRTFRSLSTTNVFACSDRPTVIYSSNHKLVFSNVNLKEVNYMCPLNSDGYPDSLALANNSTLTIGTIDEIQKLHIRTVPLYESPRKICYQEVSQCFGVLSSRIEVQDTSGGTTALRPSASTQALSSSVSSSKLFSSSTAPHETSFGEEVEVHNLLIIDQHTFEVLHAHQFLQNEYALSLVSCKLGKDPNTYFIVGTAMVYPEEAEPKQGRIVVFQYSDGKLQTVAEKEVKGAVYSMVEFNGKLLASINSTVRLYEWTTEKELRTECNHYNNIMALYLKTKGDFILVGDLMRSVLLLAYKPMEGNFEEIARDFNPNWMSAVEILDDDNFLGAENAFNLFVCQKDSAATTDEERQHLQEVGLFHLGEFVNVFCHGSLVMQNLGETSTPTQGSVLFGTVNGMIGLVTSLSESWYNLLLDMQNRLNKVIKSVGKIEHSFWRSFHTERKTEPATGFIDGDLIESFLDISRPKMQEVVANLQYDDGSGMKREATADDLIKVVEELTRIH
T2 sequence (Q9UKS7 whole entry): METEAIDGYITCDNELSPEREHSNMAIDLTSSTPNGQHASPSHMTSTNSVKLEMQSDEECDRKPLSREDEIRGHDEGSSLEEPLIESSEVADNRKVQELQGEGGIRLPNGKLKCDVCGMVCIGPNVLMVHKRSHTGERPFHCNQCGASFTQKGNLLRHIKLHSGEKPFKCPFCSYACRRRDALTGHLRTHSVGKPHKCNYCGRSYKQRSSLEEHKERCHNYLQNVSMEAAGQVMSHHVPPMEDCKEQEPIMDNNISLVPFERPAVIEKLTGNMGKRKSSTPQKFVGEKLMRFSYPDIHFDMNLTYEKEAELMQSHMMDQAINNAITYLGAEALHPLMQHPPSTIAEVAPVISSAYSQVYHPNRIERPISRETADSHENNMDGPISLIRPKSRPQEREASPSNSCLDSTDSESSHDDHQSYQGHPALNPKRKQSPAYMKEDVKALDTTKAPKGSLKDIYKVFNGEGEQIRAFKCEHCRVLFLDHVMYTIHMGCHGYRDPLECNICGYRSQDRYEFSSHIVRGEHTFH
T2 sequence (Q96SW2 whole entry): as the sequence (Q96SW2 whole entry) above
T2 sequence (Q16531 whole entry partner): as the sequence (Q16531 whole entry partner) above

In general, AC50 refers to the concentration at which the activity in the assay is half-maximal. Take `O=C1CCC(N2Cc3nc(C4CCN(Cc5ccccc5)CC4)ccc3C2=O)C(=O)N1` (stereo not drawn) [Compound I-1, 3-(2-(1-benzylpiperidin-4-yl)-5-oxo-5,7-dihydro-6H-pyrrolo[3,4-b]pyridin-6-yl)piperidine-2,6-dione]: the AC50 in experiment [1] was above 30000 nM. Moreover, in experiment [2], the “IKZF2 Degradation (%)” value came out at 33% and the AC50 was determined as 260 nM.
Consider `O=C1CCC(N2Cc3cc(C4CCN(Cc5ccccc5)CC4)ncc3C2=O)C(=O)N1` (stereo not drawn) [Compound I-2, 3-(6-(1-benzylpiperidin-4-yl)-3-oxo-1,3-dihydro-2H-pyrrolo[3,4-c]pyridin-2-yl)piperidine-2,6-dione], for which the AC50 in experiment [1] and in experiment [2] was above 30000 nM in each case.
As for `O=C1CCC(N2Cc3c(ccc(C4CCN(Cc5ccccc5)CC4)c3F)C2=O)C(=O)N1` (stereo not drawn) [Compound I-3, 3-(5-(1-benzylpiperidin-4-yl)-4-fluoro-1-oxoisoindolin-2-yl)piperidine-2,6-dione], the AC50 in experiment [1] is above 30000 nM. For the same compound, in experiment [2], the “IKZF2 Degradation (%)” value is 72% and the AC50 was determined as 6 nM.
On to `Cc1c(C2CCN(Cc3ccccc3)CC2)ccc2c1CN(C1CCC(=O)NC1=O)C2=O` (stereo not drawn) [Compound I-5, 3-(5-(1-benzylpiperidin-4-yl)-4-methyl-1-oxoisoindolin-2-yl)piperidine-2,6-dione], for which, in experiment [1], the AC50 was above 30000 nM. Besides, in experiment [2], the “IKZF2 Degradation (%)” value amounted to 59% and the AC50 came out at 110 nM.
Take `O=C1CCC(N2Cc3cc(C4CCN(Cc5ccncc5)CC4)c(F)cc3C2=O)C(=O)N1` (stereo not drawn) [Compound I-16, 3-(6-fluoro-1-oxo-5-(1-(pyridin-4-ylmethyl)piperidin-4-yl)isoindolin-2-yl)piperidine-2,6-dione]: in experiment [1], the “IKZF1 Degradation (%)” value is given as 22% and the AC50 is 7600 nM. Moreover, in experiment [2], the “IKZF2 Degradation (%)” value was determined as 42% and the AC50 worked out at 560 nM.
Taken in the same sequence, the figures for `CO[C@H]1CC[C@H](CN2CCC(c3ccc4c(c3Cl)CN(C3CCC(=O)NC3=O)C4=O)CC2)CC1` (stereo partly drawn) [Compound I-17, 3-(4-chloro-5-(1-(((1r,4r)-4-methoxycyclohexyl)methyl)piperidin-4-yl)-1-oxoisoindolin-2-yl)piperidine-2,6-dione] were 40%, 130 nM, 30% and 75 nM.
On to `COc1c(C2=CCN(Cc3ccccc3)CC2)ccc2c1CN(C1CCC(=O)NC1=O)C2=O` (stereo not drawn) [Compound I-20, 3-(5-(1-benzyl-1,2,3,6-tetrahydropyridin-4-yl)-4-methoxy-1-oxoisoindolin-2-yl)piperidine-2,6-dione], for which, in experiment [1], the “IKZF1 Degradation (%)” value came out at 40% and the AC50 was determined as 66 nM. Besides, in experiment [2], the “IKZF2 Degradation (%)” value turned out to be 42% and the AC50 stood at 200 nM.
Regarding `Nc1cccc2c1C(=O)N(C1CCC(=O)NC1=O)C2=O` (stereo not drawn) [Pomalidomide, 4-amino-2-(2,6-dioxopiperidin-3-yl)isoindoline-1,3-dione, reference compound], in experiment [1], the “IKZF1 Degradation (%)” value turned out to be 80%.
